Tests used:
Type in all cases: in vivo
db/db mice [1] = assay: Blood glucose in mouse type II diabetes model, db/db mice (Example 4); settings: single agent 0.2 g/kg per day by gavage, two weeks, 1 h after last administration, mean ± SD
Text: (§1) Effects of limonoid compound, acarbose or combination thereof on blood glucose and insulin in mouse type II diabetes model
(§2) In the present embodiment, the limonoid compound was selected from nomilin, deacetylnomilin, nomilin acid, deacetylnomilin acid glycoside, and acarbose single administration group, nomilin single administration group, deacetylnomilin single administration group, nomilin acid single administered group, deacetylnomilin acid glycoside single administration group, and respective combination thereof with acarbose administration groups were set.
Conditions for experimental feeding: as type II diabetes model mice, 6-week-old SPF-grade db/db mice were purchased from the Nanjing Model Biology Institute, and subjected to experimental feeding after 7 days of preliminary feeding. […]
Gavage doses: nomilin at a dose of 0.2 g/kg was gavaged per day for the nomilin group, deacetylnomilin at a dose of 0.2 g/kg was gavaged per day for the deacetylnomilin group, nomilin acid at a dose of 0.2 g/kg was gavaged per day for the nomilin acid group, deacetylnomilin acid glycoside at a dose of 0.2 g/kg was gavaged per day for the deacetylnomilin acid glycoside group, acarbose at a dose of 0.2 g/kg was gavaged per day for the acarbose group, nomilin at a dose of 0.1 g/kg and acarbose at a dose of 0.1 g/kg were simultaneously gavaged per day for the nomilin combination group, nomilin acid at a dose of 0.1 g/kg and acarbose at a dose of 0.1 g/kg were simultaneously gavaged per day for the nomilin acid combination group, deacetylnomilin at a dose of 0.1 g/kg and acarbose at a dose of 0.1 g/kg were simultaneously gavaged per day for the deacetylnomilin combination group, deacetylnomilin acid glycoside at a dose of 0.1 g/kg and acarbose at a dose of 0.1 g/kg were simultaneously gavaged per day for the deacetylnomilin acid glycoside combination group, the gavage volume was 10 mL/kg, and the normal group and the model group were administrated with 10 mL/kg of distilled water. […] The data were expressed as mean and standard deviation. […]

db/db mice [2] = assay: Serum insulin by Elisa in db/db mice (Example 4); settings: single agent 0.2 g/kg per day by gavage, two weeks, mean ± SD
Text: as §1, §2
(§3) Conditions for experimental feeding: as type II diabetes model mice, 6-week-old SPF-grade db/db mice were purchased from the Nanjing Model Biology Institute, and subjected to experimental feeding after 7 days of preliminary feeding. It should be noted that the conditions for raising the mice were as follows: the temperature was 23±1° C., the humidity was 55±10%, the lights were turned on between 7 am and 7 pm (the lights were turned off at other time), and the mice were allowed to freely take in water and feed. The experimental feed was mouse growth-stable feed (GB M2118), and the daily feeding and management of the animals were under the responsibility of the animal security department, which provided the animals with sufficient diet and fresh drinking water daily. […]

db/db mice [3] = assay: Blood glucose in mouse type II diabetes model, db/db mice (Example 2); settings: single agent 0.04 g/kg per day by gavage, two weeks, 1 h after last administration, mean ± SD
Text: (§4) Effects of limonoid compound, acarbose or combination thereof on blood glucose and leptin in mouse type II diabetes model
(§5) In the present example, db/db mice (line name BKS.Cg-Dock7^m+/+Lepr^db/Nju) were used to perform hypoglycemic efficacy evaluation test of animals (blood glucose level and leptin). The limonoid compound was selected from obacunone, isoobacunoic acid and obacunone glycoside, and acarbose single administration group, obacunone single administration group, isoobacunoic acid single administration group, obacunone glycoside single administered group, and respective combination thereof with acarbose administration groups were set.
as §3, with “feed.” for “feed. The experimental feed was mouse growth-stable feed (GB M2118), and the daily feeding and management of the animals were under the responsibility of the animal security department, which provided the animals with sufficient diet and fresh drinking water daily.”

db/db mice [4] = assay: Serum leptin by Elisa in db/db mice (Example 2); settings: single agent 0.04 g/kg per day by gavage, two weeks, mean ± SD
Text: as §4, §5
as §3, with “feed.” for “feed. The experimental feed was mouse growth-stable feed (GB M2118), and the daily feeding and management of the animals were under the responsibility of the animal security department, which provided the animals with sufficient diet and fresh drinking water daily.”

STZ mice = assay: Blood glucose in mouse type II diabetes model with pancreatic islet damage and obesity, STZ plus high-fat diet (Example 5); settings: STZ + high-fat diet ICR mice; single agent 0.5 g/kg per day by gavage, two weeks; 1 h after last administration; mean ± SD
Text: Effects of limonoid compound, acarbose or combination thereof on blood glucose in mouse type II diabetes model with pancreatic islet damage and obesity
In this example, a mouse model of type II diabetes with pancreatic islet damage and obesity was established by multiple modeling ICR mice with a small dose of streptozotocin (STZ), following with continuous high-fat diets (referring to literature: Zhang Jiyuan et al, Study on the effect of three plant extracts on improving glucose and lipid metabolism in type 2 diabetic mice, Food and Machinery, 2016, 32 (12): 142-147). […]
Experimental grouping: 15 male mice were randomly selected as the normal control group, and the remaining mice were subjected to a high-fat diet (high-fat diet formula: cholesterol 1%, egg yolk powder 10%, lard oil 10%, and basic feed 79%, for establishing an obesity mouse model) for consecutive 4 weeks and intraperitoneal injection of STZ at a dose of 35mg/kg for three consecutive days. After one week, the mice were subject to 24 hours of fasting and water deprivation, their fasting blood glucose was measured, and the mice with a blood glucose level of 15 to 25 mmol/L were selected and undifferentiatedly grouped and used in the experiment, continuously subjected to the high-fat diet, 15 mice in each group, and subjected to blood sampling and detection of indicators after 2 weeks of administration. […]

In the case of CC1(C)OC(=O)C[C@H](O)[C@]2(C)[C@H]3CC[C@@]4(C)[C@H](c5ccoc5)OC(=O)[C@H]5O[C@]54[C@]3(C)C(=O)C[C@@H]12 [Deacetylnomilin, deacetylnomilin], the Blood glucose value (db/db mice [1]) is reported as 11.9 ± 2.9 mmol/L.
CC(=O)O[C@H]1CC(=O)OC(C)(C)[C@@H]2CC(=O)[C@]3(C)[C@H](CC[C@@]4(C)[C@H](c5ccoc5)OC(=O)[C@H]5O[C@]543)[C@@]12C [Nomilin, nomilin] was tested, and the Blood glucose value (db/db mice [1]) was 10.1 ± 3.9 mmol/L.
nomilin acid was tested, and the Insulin (db/db mice [2]) was 8.08 ± 1.49 pg/mL.
For CC1(C)OC(=O)C=C[C@]2(C)[C@H]3CC[C@@](C)([C@@H](O[C@@H]4O[C@H](CO)[C@@H](O)[C@H](O)[C@H]4O)c4ccoc4)[C@@]4(O[C@@H]4C(=O)O)[C@]3(C)C(=O)C[C@@H]12 [Obacunone glycoside, obacunone glycoside], the Blood glucose value (db/db mice [3]) was 13.7 ± 2.9 mmol/L and the Leptin (db/db mice [4]) was 28.55 ± 4.00 pg/mL.
CC(=O)O[C@@H]1CC(=O)OC(C)(C)[C@@H]2CC(=O)[C@]3(C)[C@H](CC[C@@](C)(C(O[C@@H]4O[C@H](CO)[C@@H](O)[C@H](O)[C@H]4O)c4ccoc4)C34OC4C(=O)O)[C@@]12C (stereo partly drawn) [Nomilin glycoside, nomilin glycoside] gave a Blood glucose value (STZ mice) of 12.8 ± 2.9 mmol/L.

From patent US20220296566A1, “COMBINATION PRODUCT CONTAINING LIMONOID COMPOUND AND ALPHA-GLUCOSIDASE INHIBITOR” (ZHEJIANG YANGSHENGTANG INSTITUTE OF NATURAL MEDICATION CO., …, priority 2019, published 2022)
